The text below walks through data of PubChem BioAssay AID1159565 (GlaxoSmithKline (GSK), 2015).

Active and inactive are the calls of the source. No rule for the calls is given here. Where only a bound is given, the exact number is not on record here.

One assay concerns T. cruzi-infected H9C2 cardiomyocytes, high-content imaging. As to the kind of experiment: intracellular T. cruzi amastigote inhibition, imaging, H9C2 host cardiomyocytes, host toxicity (AID 1159565).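 Also: infected cells incubated 72 h after plating.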
Conditions: not given
What is called IC50 is the point on the concentration scale where inhibition reaches its midpoint. `O=c1ccn(-c2ccc([N+](=O)[O-])cc2Cl)c2ccc(F)cc12`: the IC50 is 4 µM.

As for `O=C(Nc1ccccc1)Nc1nc(-c2ccccn2)cs1`, the IC50 was 1 µM.

As for `O=C(CSc1ccc(-c2ccccn2)nn1)Nc1ccc(Cl)cc1`, the IC50 was 2.5 µM.

On to `Cn1nc([N+](=O)[O-])nc1Oc1ccc(C(=O)c2ccccc2)cc1`, for which the IC50 was 0.32 µM.

Take `O=C(CN1CCN(S(=O)(=O)c2cccc([N+](=O)[O-])c2)CC1)Nc1ccc(Oc2ccccc2)cc1`: the 50% inhibitory concentration (IC50) was 2.5 µM.

Take `CN(C)c1ncc(-c2cncn2CCOc2ccc(Cl)cc2)cn1`: the IC50 was 0.25 µM.

Take `CC(C)(C)c1cc(NC2CC2)nc(-c2ccccn2)n1`: the IC50 was 1.6 µM.

Take `O=C(Nc1ccc(Br)cn1)c1ccc(Cn2cnc([N+](=O)[O-])n2)cc1`: the half-inhibitory concentration (IC50) is 0.13 µM.

With `CCC(c1ccc(F)cc1)n1cncc1-c1cnn(C)c1` (configuration not stated), the IC50 is 0.32 µM.

As to `Cc1cc(Br)sc1CNCCCNc1cc(=O)c2ccccc2[nH]1`, the half-maximal inhibitory concentration (IC50) was 0.79 µM.

Consider `Cc1cc2nc(CN(C)Cc3ncccc3C)[nH]c2cc1C`, for which the half-maximal inhibitory concentration (IC50) was 1 µM.

With `O=C(NCCNc1noc(-c2ccc([N+](=O)[O-])cc2)n1)c1ccc(Cl)cc1`, the IC50 was > 50 µM (inactive).

Regarding `COc1ccccc1-c1c(C)[nH]c2nc(N)nc(C)c12`, the 50% inhibitory concentration (IC50) was 0.25 µM.

On to `O=S(=O)(NCC(c1cccnc1)N1CCN(c2ccc(F)cc2)CC1)c1cccs1` (configuration not stated), for which the IC50 was 0.13 µM.

For `Cc1ccc2nc(N(Cc3cccnc3)C(=O)CCc3ccccc3)sc2c1`, the IC50 was 0.04 µM.

With `Cc1ccc(C)c(OC2CCN(C(=O)C(C)n3ccnc3)CC2)c1` (configuration not stated), the IC50 was 0.4 µM.

Turning to `Cc1c([N+](=O)[O-])c(C(=O)Nc2sc3c(c2C#N)CCC(C)C3)nn1C` (configuration not stated), the half-maximal inhibitory concentration (IC50) was 2.5 µM.

Turning to `CCOc1ccc(CN(C)Cc2nc(N)nc(Nc3ccc(C)cc3)n2)cc1`, the half-maximal inhibitory concentration (IC50) is 5 µM.

Regarding `O=C(NCc1ccc(-n2cccc2)cc1)c1nc(Cn2ccc([N+](=O)[O-])n2)no1`, the IC50 is 2.5 µM.

Turning to `O=C(NCc1nnc2n1CCCCC2)c1csc(-c2ccccc2)n1`, the IC50 was 2 µM.

Turning to `Cc1cnc(Nc2cc(Cc3ccccc3)nc(NC3CCC(O)CC3)n2)s1` (configuration not stated), the IC50 is 0.13 µM.

Regarding `Cc1nn(-c2nc(N)nc(-c3ccccn3)n2)c(N)c1-c1ccccc1`, the IC50 was 5 µM.

As for `O=C(CSc1nnc(-c2ccc3c(c2)OCO3)o1)N(Cc1ccco1)CC(F)(F)F`, the half-maximal inhibitory concentration (IC50) is 3.2 µM.

Take `Cc1cc(C)nc(N2CCC(N(Cc3cccnc3)C(=O)c3cccc(C#N)c3)CC2)n1`: the IC50 is 0.32 µM.

Consider `CN(C)Cc1cccc(Nc2nccc(-c3ccc(NCCN)c(C#N)c3)n2)c1`, for which the 50% inhibitory concentration (IC50) was 10 µM.

As to `COc1ccc2c(Cl)c(C(=O)N3CCC3)sc2c1Cl`, the IC50 was 2.5 µM.

For the molecule `CCc1ccccc1[C@@H](C)NC(=O)c1cnc2c(cnn2CC)c1NC1CCN(C(N)=O)CC1`, the IC50 is > 50 µM (inactive).

As to `O=C(c1ccc(Cl)cc1)c1ccc(OC(=O)N2CCOCC2)cc1`, the IC50 was > 50 µM (inactive).

As to `CS(=O)(=O)c1ccccc1C(=O)N(Cc1ccccc1)c1ccccc1`, the IC50 was > 50 µM (inactive).

On to `CC(c1cc(Cl)cc(Cl)c1)N(C)c1ncc2c(N)nc(N)nc2n1` (configuration not stated), for which the IC50 was 0.002 µM.

As to `CN(C)S(=O)(=O)c1ccc(-c2cnc(N)c(-c3nc4ccc(F)cc4[nH]3)c2)cc1`, the IC50 was > 50 µM (inactive).

Regarding `Cn1nc(-c2ccc(NC(=O)Cc3ccccc3Cl)cc2)c2c(N)ncnc21`, the concentration for half-maximal inhibition (IC50) was 1.3 µM.

With `Cc1ccccc1NS(=O)(=O)c1ccc2[nH]cc(C(=O)NC3CCCC3)c(=O)c2c1`, the concentration for half-maximal inhibition (IC50) is 32 µM.

In the case of `CCCc1cc(C(=O)Nc2ncc(-c3cccc(Br)c3)n2C)n[nH]1`, the IC50 was 4 µM.

`CNC(=O)C1Cc2ccccc2N1C(=O)Cc1ccc(OC)cc1` (configuration not stated): the IC50 is > 50 µM (inactive).

For the molecule `N#Cc1cccc(CN2CCC(c3nc(-c4ccc(C(F)(F)F)nc4)no3)CC2)c1`, the IC50 is 2 µM.

As for `O=C(CN(Cc1ccccn1)Cc1ccccn1)NCc1ccc(-c2csnn2)cc1`, the concentration for half-maximal inhibition (IC50) is 63 µM.

For `O=C(NCCc1nc(-c2ccc(F)c(F)c2)n[nH]1)C1CCCCC1`, the IC50 is 2.5 µM.

Take `O=C(c1ccccc1)N1CCC(C(=O)N2CCC(Oc3ccccc3Cl)CC2)CC1`: the IC50 is 32 µM.

For the molecule `NC(=O)c1ccsc1NC(=O)c1ccc([N+](=O)[O-])s1`, the 50% inhibitory concentration (IC50) was 0.13 µM.

Take `CN(C)S(=O)(=O)c1cccc(CSc2nnc(-c3ccc4c(c3)OCO4)o2)c1`: the IC50 is 0.1 µM.

For the molecule `Cc1ccc(NC(=O)c2ccc(Cl)c(NC(=O)c3ccc([N+](=O)[O-])cc3)c2)cc1`, the IC50 is 0.5 µM.

In the case of `COc1ccc2ncc(=O)n(CCN3CC[C@H](NCc4ncc(Cl)c5[nH]ncc45)[C@H](O)C3)c2n1`, the IC50 was 3.2 µM.

On to `COc1ccc(-c2csc(NC(=O)c3ccc([N+](=O)[O-])s3)n2)cc1OC`, for which the IC50 is 0.1 µM.

With `COc1ccc2ncc(Cl)c(CCN3CC[C@H](NCc4cc5c(cn4)OCS5)[C@@H](O)C3)c2n1`, the IC50 is 0.16 µM.

In the case of `CNc1cc(C)nc(C2CN(C(=O)c3n[nH]c4ccccc34)CCO2)c1` (configuration not stated), the IC50 is 2.5 µM.

On to `CN(C)Cc1ccc(-c2ccc(S(=O)(=O)NCC3CCCO3)c(F)c2)cc1` (configuration not stated), for which the IC50 was 5 µM.

As for `C[C@@H](Oc1cc(-n2cnc3ccc(O[C@H]4CCNC4)cc32)sc1C(N)=O)c1ccccc1Cl`, the concentration for half-maximal inhibition (IC50) is 13 µM.

`CC1CN(Cc2ccc(C#N)cc2)CCN1c1ccc(NC(=O)c2ccccc2F)cc1` (configuration not stated): the IC50 was > 50 µM (inactive).

Regarding `Cc1[nH]n2c(=O)c3c(nc2c1-c1ccc(F)cc1)CCCC3`, the concentration for half-maximal inhibition (IC50) is 2 µM.

Turning to `COc1ccccc1-n1c(SCC(=O)Nc2ccc3c(c2)OCO3)nc2c(c1=O)SCC2`, the IC50 is 16 µM.

`COc1ccc2nc(N(Cc3cccnc3)C(=O)C3CCC3)sc2c1`: the concentration for half-maximal inhibition (IC50) was 0.13 µM.

As to `Cc1ccc(C)c(CN2C(=O)NC3(CCc4ccccc43)C2=O)c1` (configuration not stated), the IC50 is 20 µM.

For the molecule `Cc1nn(-c2nc(N)nc(-c3ccccn3)n2)c(C)c1Cc1ccccc1`, the concentration for half-maximal inhibition (IC50) is 3.2 µM.

For the molecule `CC(C)(C)Nc1nc(-c2ccccn2)nc2ccccc12`, the IC50 was 2 µM.

The assay is the same for the next values; noted with them: measured here: H9C2 host cell toxicity.
Turning to `O=c1ccn(-c2ccc([N+](=O)[O-])cc2Cl)c2ccc(F)cc12`, the 50% inhibitory concentration (IC50) was greater than 50 µM.

`O=C(Nc1ccccc1)Nc1nc(-c2ccccn2)cs1` gave an IC50 of 1 µM.

For `O=C(CSc1ccc(-c2ccccn2)nn1)Nc1ccc(Cl)cc1`, the IC50 was greater than 50 µM.

In turn, `Cn1nc([N+](=O)[O-])nc1Oc1ccc(C(=O)c2ccccc2)cc1` came in with a half-maximal inhibitory concentration (IC50) greater than 50 µM.

Consider `O=C(CN1CCN(S(=O)(=O)c2cccc([N+](=O)[O-])c2)CC1)Nc1ccc(Oc2ccccc2)cc1`, for which the half-inhibitory concentration (IC50) was greater than 50 µM.

For `CN(C)c1ncc(-c2cncn2CCOc2ccc(Cl)cc2)cn1`, the IC50 is greater than 50 µM.

The molecule `CC(C)(C)c1cc(NC2CC2)nc(-c2ccccn2)n1` came in with a 50% inhibitory concentration (IC50) of 0.32 µM.

Take `O=C(Nc1ccc(Br)cn1)c1ccc(Cn2cnc([N+](=O)[O-])n2)cc1`: the IC50 was greater than 50 µM.

`CCC(c1ccc(F)cc1)n1cncc1-c1cnn(C)c1` (configuration not stated): the 50% inhibitory concentration (IC50) is greater than 50 µM.

Molecule `Cc1cc(Br)sc1CNCCCNc1cc(=O)c2ccccc2[nH]1` gave an IC50 of 25 µM.

`Cc1cc2nc(CN(C)Cc3ncccc3C)[nH]c2cc1C` displayed an IC50 of 13 µM.

The molecule `O=C(NCCNc1noc(-c2ccc([N+](=O)[O-])cc2)n1)c1ccc(Cl)cc1` gave a half-inhibitory concentration (IC50) greater than 50 µM.

The molecule `COc1ccccc1-c1c(C)[nH]c2nc(N)nc(C)c12` showed a half-maximal inhibitory concentration (IC50) greater than 50 µM.

`O=S(=O)(NCC(c1cccnc1)N1CCN(c2ccc(F)cc2)CC1)c1cccs1` (configuration not stated) displayed an IC50 greater than 50 µM.

On to `Cc1ccc2nc(N(Cc3cccnc3)C(=O)CCc3ccccc3)sc2c1`, for which the IC50 is greater than 50 µM.

Consider `Cc1ccc(C)c(OC2CCN(C(=O)C(C)n3ccnc3)CC2)c1` (configuration not stated), for which the half-maximal inhibitory concentration (IC50) was greater than 50 µM.

`Cc1c([N+](=O)[O-])c(C(=O)Nc2sc3c(c2C#N)CCC(C)C3)nn1C` (configuration not stated) showed an IC50 greater than 50 µM.

For `CCOc1ccc(CN(C)Cc2nc(N)nc(Nc3ccc(C)cc3)n2)cc1`, the half-maximal inhibitory concentration (IC50) was determined as 3.2 µM.

Molecule `O=C(NCc1ccc(-n2cccc2)cc1)c1nc(Cn2ccc([N+](=O)[O-])n2)no1` returned an IC50 greater than 50 µM.

With `O=C(NCc1nnc2n1CCCCC2)c1csc(-c2ccccc2)n1`, the half-inhibitory concentration (IC50) was greater than 50 µM.

The molecule `Cc1cnc(Nc2cc(Cc3ccccc3)nc(NC3CCC(O)CC3)n2)s1` (configuration not stated) registered an IC50 of 0.032 µM.

As to `Cc1nn(-c2nc(N)nc(-c3ccccn3)n2)c(N)c1-c1ccccc1`, the IC50 was found to be 13 µM.

Molecule `O=C(CSc1nnc(-c2ccc3c(c2)OCO3)o1)N(Cc1ccco1)CC(F)(F)F` yielded a 50% inhibitory concentration (IC50) greater than 50 µM.

The molecule `Cc1cc(C)nc(N2CCC(N(Cc3cccnc3)C(=O)c3cccc(C#N)c3)CC2)n1` came in with an IC50 greater than 50 µM.

Consider `CN(C)Cc1cccc(Nc2nccc(-c3ccc(NCCN)c(C#N)c3)n2)c1`, for which the IC50 came to 2 µM.

Turning to `COc1ccc2c(Cl)c(C(=O)N3CCC3)sc2c1Cl`, the IC50 is greater than 50 µM.

As to `CCc1ccccc1[C@@H](C)NC(=O)c1cnc2c(cnn2CC)c1NC1CCN(C(N)=O)CC1`, the half-inhibitory concentration (IC50) was greater than 50 µM.
